Results: the kinase profiling compilation of Christmann-Franck et al. (2016)
One block for each compound: values may come before it.

Tests used:
Assay in all cases: radiometric filter-binding kinase assay
CSNK2A1 (human) = CSNK2A1 (human) (UniProt P68400)
SRPK1 (human) = SRPK1 (human) (UniProt Q96SB4)
PHKG1 (human) = PHKG1 (human) (UniProt Q16816)
FLT1 (human) = FLT1 (human) (UniProt P17948)
MAPKAPK5 (human) = MAPKAPK5 (human) (UniProt Q8IW41)
MAPKAPK3 (human) = MAPKAPK3 (human) (UniProt Q16644)
MAPKAPK3 (human), sequence (Q16644 whole entry, looked up): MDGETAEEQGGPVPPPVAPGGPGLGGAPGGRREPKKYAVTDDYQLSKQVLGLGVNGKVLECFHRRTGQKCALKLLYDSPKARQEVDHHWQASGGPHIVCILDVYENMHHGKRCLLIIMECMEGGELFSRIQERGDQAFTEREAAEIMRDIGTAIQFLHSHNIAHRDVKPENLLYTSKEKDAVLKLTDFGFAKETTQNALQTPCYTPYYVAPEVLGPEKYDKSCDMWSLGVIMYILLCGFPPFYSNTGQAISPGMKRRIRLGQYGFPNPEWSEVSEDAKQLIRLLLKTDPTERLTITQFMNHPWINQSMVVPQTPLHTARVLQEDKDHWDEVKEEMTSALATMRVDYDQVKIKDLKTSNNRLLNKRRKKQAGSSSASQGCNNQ

MELK (human) = MELK (human) (UniProt Q14680)
GCK (human) = GCK (human) (UniProt Q12851)
BTK (human) = BTK (human) (UniProt Q06187)
DYRK2 (human) = DYRK2 (human) (UniProt Q92630)
DYRK2 (human), sequence (Q92630 whole entry, looked up): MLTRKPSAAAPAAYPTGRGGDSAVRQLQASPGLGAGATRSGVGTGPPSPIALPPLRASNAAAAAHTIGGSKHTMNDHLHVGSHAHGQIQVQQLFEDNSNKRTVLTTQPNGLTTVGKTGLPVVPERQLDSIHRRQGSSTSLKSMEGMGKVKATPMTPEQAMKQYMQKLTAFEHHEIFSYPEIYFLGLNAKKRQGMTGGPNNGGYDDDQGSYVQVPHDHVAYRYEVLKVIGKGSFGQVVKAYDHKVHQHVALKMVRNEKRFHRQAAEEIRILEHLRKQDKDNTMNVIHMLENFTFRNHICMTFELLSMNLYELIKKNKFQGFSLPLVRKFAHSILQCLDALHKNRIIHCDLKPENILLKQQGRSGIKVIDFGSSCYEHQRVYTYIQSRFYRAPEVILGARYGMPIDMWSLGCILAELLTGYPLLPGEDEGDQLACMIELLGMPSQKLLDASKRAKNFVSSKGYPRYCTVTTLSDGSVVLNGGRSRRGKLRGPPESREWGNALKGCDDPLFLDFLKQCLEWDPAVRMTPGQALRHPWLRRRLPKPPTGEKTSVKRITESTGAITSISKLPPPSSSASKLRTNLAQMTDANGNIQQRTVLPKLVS

MAP2K6 (human) = MAP2K6 (human) (UniProt P52564)
BRSK1 (human) = BRSK1 (human) (UniProt Q8TDC3)
ERBB4 (human) = ERBB4 (human) (UniProt Q15303)
PIM2 (human) = PIM2 (human) (UniProt Q9P1W9)
RIPK2 (human) = RIPK2 (human) (UniProt O43353)
AURKB (human) = AURKB (human) (UniProt Q96GD4)
CHEK1 (human) = CHEK1 (human) (UniProt O14757)
MAPK10 (human) = MAPK10 (human) (UniProt P53779)
RPS6KA3 KD1 KD2 (human) = RPS6KA3 KD1 KD2 (human) (UniProt P51812)
MST4 (human) = MST4 (human) (UniProt Q9P289)
PRKACA (human) = PRKACA (human) (UniProt P17612)
[1] = system: SGK1 (human), O00141 [S422D]
PIM3 (human) = PIM3 (human) (UniProt Q86V86)
CDK2 CCNA2 (human) = CDK2 CCNA2 (human) (UniProt P20248+P24941)
MAPK15 (human) = MAPK15 (human) (UniProt Q8TD08)
MAPK12 (human) = MAPK12 (human) (UniProt P53778)
FGFR1 (human) = FGFR1 (human) (UniProt P11362)
FGFR1 (human), sequence (P11362 whole entry, looked up): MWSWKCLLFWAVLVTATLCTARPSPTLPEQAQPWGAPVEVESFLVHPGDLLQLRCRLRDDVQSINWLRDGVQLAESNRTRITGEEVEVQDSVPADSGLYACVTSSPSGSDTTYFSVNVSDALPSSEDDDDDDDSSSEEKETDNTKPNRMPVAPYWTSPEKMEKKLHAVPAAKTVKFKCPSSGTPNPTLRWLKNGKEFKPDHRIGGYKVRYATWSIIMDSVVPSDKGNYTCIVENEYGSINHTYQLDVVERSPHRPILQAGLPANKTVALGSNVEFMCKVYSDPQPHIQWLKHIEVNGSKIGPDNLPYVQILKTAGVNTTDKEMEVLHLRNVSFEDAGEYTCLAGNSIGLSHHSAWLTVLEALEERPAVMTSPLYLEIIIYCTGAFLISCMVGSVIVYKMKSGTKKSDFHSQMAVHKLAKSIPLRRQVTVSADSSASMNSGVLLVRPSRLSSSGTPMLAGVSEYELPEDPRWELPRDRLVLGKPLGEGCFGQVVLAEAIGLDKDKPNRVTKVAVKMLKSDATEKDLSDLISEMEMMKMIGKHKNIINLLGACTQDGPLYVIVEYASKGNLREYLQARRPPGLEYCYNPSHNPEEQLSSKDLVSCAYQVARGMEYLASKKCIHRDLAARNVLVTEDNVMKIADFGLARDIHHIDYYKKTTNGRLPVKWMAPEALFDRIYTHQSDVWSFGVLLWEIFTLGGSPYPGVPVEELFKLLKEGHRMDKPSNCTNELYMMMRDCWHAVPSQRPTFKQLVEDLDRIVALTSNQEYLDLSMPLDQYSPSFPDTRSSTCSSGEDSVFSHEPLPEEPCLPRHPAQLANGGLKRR

TAOK1 (human) = TAOK1 (human) (UniProt Q7L7X3)
MINK1 (human) = MINK1 (human) (UniProt Q8N4C8)
INSRR (human) = INSRR (human) (UniProt P14616)
INSRR (human), sequence (P14616 whole entry, looked up): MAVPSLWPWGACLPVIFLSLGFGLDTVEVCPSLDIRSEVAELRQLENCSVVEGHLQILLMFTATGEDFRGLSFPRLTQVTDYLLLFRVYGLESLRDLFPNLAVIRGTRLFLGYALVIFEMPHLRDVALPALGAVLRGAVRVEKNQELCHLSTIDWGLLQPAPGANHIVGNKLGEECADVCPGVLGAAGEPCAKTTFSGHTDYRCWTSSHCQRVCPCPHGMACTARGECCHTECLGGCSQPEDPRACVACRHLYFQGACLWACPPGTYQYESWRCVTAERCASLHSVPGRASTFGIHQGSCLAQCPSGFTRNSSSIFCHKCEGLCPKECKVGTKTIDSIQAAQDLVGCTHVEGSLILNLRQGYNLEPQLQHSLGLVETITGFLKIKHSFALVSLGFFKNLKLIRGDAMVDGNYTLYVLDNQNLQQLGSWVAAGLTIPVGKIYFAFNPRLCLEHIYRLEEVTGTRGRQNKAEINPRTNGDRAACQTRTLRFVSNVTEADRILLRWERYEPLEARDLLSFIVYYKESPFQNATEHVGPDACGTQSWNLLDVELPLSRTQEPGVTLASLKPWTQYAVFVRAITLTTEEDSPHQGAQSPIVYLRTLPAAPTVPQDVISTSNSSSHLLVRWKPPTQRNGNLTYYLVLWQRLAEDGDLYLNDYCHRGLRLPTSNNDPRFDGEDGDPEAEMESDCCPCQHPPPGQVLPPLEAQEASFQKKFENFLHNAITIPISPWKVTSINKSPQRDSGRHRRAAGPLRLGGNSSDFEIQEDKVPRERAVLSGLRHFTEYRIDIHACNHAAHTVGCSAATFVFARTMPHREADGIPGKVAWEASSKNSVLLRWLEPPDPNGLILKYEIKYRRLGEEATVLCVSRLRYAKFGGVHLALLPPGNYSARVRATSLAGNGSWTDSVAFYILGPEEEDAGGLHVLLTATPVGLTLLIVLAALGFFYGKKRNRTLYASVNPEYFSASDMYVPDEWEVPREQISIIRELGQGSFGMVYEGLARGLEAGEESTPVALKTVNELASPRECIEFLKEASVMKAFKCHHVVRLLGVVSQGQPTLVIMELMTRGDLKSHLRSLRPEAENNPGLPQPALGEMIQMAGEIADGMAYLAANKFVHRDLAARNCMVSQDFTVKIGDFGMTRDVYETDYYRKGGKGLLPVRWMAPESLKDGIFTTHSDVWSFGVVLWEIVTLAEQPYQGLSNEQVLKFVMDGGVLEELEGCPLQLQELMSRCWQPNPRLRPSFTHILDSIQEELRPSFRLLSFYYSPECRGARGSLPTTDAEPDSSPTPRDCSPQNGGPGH

MAP2K2 (human) = MAP2K2 (human) (UniProt P36507)
EPHA2 (human) = EPHA2 (human) (UniProt P29317)
AURKA (human) = AURKA (human) (UniProt O14965)
AURKA (human), sequence (O14965 whole entry, looked up): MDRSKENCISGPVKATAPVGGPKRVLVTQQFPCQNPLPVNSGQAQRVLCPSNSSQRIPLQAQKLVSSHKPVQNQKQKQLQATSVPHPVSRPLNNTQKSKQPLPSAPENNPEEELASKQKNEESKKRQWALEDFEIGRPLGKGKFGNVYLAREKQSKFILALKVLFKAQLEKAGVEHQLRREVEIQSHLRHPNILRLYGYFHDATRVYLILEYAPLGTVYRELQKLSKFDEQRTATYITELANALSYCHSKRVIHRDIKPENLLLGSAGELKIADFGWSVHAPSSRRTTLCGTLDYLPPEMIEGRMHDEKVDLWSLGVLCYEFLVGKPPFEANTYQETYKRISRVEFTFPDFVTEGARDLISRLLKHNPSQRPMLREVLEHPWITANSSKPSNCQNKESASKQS

EEF2K (human) = EEF2K (human) (UniProt O00418)
PRKCA (human) = PRKCA (human) (UniProt P17252)
[2] = system: PAK2 (human), Q13177 [T402E]

PHKG1 (human), sequence (Q16816 whole entry, looked up): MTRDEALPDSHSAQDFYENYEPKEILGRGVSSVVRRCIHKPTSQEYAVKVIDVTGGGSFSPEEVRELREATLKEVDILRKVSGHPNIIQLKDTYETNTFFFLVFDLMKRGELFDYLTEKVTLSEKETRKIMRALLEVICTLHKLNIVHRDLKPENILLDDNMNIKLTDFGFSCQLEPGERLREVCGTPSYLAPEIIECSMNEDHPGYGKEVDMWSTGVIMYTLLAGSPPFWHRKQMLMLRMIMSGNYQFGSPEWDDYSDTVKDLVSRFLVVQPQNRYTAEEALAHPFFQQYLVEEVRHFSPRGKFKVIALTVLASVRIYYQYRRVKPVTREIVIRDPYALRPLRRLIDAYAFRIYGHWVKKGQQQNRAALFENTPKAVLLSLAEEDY
SRPK1 (human), sequence (Q96SB4 whole entry, looked up): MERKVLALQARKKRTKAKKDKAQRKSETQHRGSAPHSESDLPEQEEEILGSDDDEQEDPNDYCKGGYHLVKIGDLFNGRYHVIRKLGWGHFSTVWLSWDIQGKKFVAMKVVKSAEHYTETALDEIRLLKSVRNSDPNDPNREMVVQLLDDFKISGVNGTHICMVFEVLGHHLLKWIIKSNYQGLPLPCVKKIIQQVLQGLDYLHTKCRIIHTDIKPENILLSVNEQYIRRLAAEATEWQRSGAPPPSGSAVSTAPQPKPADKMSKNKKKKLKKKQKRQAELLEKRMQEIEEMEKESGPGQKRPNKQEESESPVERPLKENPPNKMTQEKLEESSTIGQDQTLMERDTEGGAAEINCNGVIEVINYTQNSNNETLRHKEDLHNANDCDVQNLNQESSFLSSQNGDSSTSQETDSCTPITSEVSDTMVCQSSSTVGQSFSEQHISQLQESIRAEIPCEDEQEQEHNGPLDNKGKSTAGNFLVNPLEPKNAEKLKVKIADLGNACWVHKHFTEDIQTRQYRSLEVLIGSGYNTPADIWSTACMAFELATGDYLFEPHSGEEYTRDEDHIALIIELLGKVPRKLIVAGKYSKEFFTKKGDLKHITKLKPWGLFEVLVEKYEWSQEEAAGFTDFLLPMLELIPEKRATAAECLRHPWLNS

residual activity (CSNK2A1 (human); compound 0.1 µM): 106%
residual activity (CSNK2A1 (human); compound 1.0 µM): 77%
residual activity (SRPK1 (human); compound 0.1 µM): 104%
residual activity (SRPK1 (human); compound 1.0 µM): 88%
residual activity (PHKG1 (human); compound 0.1 µM): 100%
residual activity (PHKG1 (human); compound 1.0 µM): 89%
residual activity (FLT1 (human); compound 0.1 µM): 8%
residual activity (FLT1 (human); compound 1.0 µM): 13%
residual activity (MAPKAPK5 (human); compound 0.1 µM): 66%
residual activity (MAPKAPK5 (human); compound 1.0 µM): 14%
residual activity (MAPKAPK3 (human); compound 0.1 µM): 113%
residual activity (MAPKAPK3 (human); compound 1.0 µM): 94%
residual activity (MELK (human); compound 0.1 µM): 95%
residual activity (MELK (human); compound 1.0 µM): 94%
residual activity (GCK (human); compound 0.1 µM): 121%
residual activity (GCK (human); compound 1.0 µM): 80%
residual activity (BTK (human); compound 0.1 µM): 90%
residual activity (BTK (human); compound 1.0 µM): 93%
residual activity (DYRK2 (human); compound 0.1 µM): 114%
residual activity (DYRK2 (human); compound 1.0 µM): 89%
residual activity (MAP2K6 (human); compound 0.1 µM): 12%
residual activity (MAP2K6 (human); compound 1.0 µM): 10%
residual activity (BRSK1 (human); compound 0.1 µM): 113%
residual activity (BRSK1 (human); compound 1.0 µM): 90%
residual activity (ERBB4 (human); compound 0.1 µM): 100%
residual activity (ERBB4 (human); compound 1.0 µM): 95%
residual activity (PIM2 (human); compound 0.1 µM): 91%
residual activity (PIM2 (human); compound 1.0 µM): 106%
residual activity (RIPK2 (human); compound 0.1 µM): 103%
residual activity (RIPK2 (human); compound 1.0 µM): 39%
residual activity (AURKB (human); compound 0.1 µM): 94%
residual activity (AURKB (human); compound 1.0 µM): 74%
residual activity (CHEK1 (human); compound 0.1 µM): 114%
residual activity (CHEK1 (human); compound 1.0 µM): 92%
residual activity (MAPK10 (human); compound 0.1 µM): 107%
residual activity (MAPK10 (human); compound 1.0 µM): 90%
residual activity (RPS6KA3 KD1 KD2 (human); compound 0.1 µM): 106%
residual activity (RPS6KA3 KD1 KD2 (human); compound 1.0 µM): 70%
residual activity (MST4 (human); compound 0.1 µM): 129%
residual activity (MST4 (human); compound 1.0 µM): 72%
residual activity (PRKACA (human); compound 0.1 µM): 99%
residual activity (PRKACA (human); compound 1.0 µM): 93%
residual activity ([1]; compound 0.1 µM): 106%
residual activity ([1]; compound 1.0 µM): 95%
residual activity (PIM3 (human); compound 0.1 µM): 126%
residual activity (PIM3 (human); compound 1.0 µM): 80%
residual activity (CDK2 CCNA2 (human); compound 0.1 µM): 119%
residual activity (CDK2 CCNA2 (human); compound 1.0 µM): 88%
residual activity (MAPK12 (human); compound 0.1 µM): 99%
residual activity (MAPK12 (human); compound 1.0 µM): 92%
residual activity (FGFR1 (human); compound 1.0 µM): 87%
residual activity (TAOK1 (human); compound 0.1 µM): 103%
residual activity (TAOK1 (human); compound 1.0 µM): 66%
residual activity (MINK1 (human); compound 0.1 µM): 101%
residual activity (MINK1 (human); compound 1.0 µM): 83%
residual activity (INSRR (human); compound 1.0 µM): 96%
residual activity (MAP2K2 (human); compound 0.1 µM): 12%
residual activity (MAP2K2 (human); compound 1.0 µM): 3%
residual activity (EPHA2 (human); compound 0.1 µM): 99%
residual activity (EPHA2 (human); compound 1.0 µM): 55%
residual activity (AURKA (human); compound 1.0 µM): 105%
residual activity (EEF2K (human); compound 1.0 µM): 85%
residual activity (PRKCA (human); compound 0.1 µM): 107%
residual activity (PRKCA (human); compound 1.0 µM): 85%
residual activity ([2]; compound 0.1 µM): 104%
residual activity ([2]; compound 1.0 µM): 110%
SMILES: COc1cc(O)c2c(c1)/C=C/C[C@H](O)[C@H](O)C(=O)/C=C\C[C@H](C)OC2=O
residual activity (MAPK15 (human); compound 0.1 µM): 40%
residual activity (MAPK15 (human); compound 1.0 µM): 4%

residual activity (CSNK2A1 (human); compound 0.1 µM): 90%
residual activity (CSNK2A1 (human); compound 1.0 µM): 89%
residual activity (CSNK2A1 (human); compound 10.0 µM): 81%
residual activity (SRPK1 (human); compound 0.1 µM): 95%
residual activity (SRPK1 (human); compound 1.0 µM): 116%
residual activity (SRPK1 (human); compound 10.0 µM): 79%
residual activity (PHKG1 (human); compound 0.1 µM): 85%
residual activity (PHKG1 (human); compound 1.0 µM): 60%
residual activity (PHKG1 (human); compound 10.0 µM): 21%
residual activity (FLT1 (human); compound 0.1 µM): 48%
residual activity (FLT1 (human); compound 10.0 µM): 0%
residual activity (MAPKAPK5 (human); compound 0.1 µM): 89%
residual activity (MAPKAPK5 (human); compound 1.0 µM): 100%
residual activity (MAPKAPK5 (human); compound 10.0 µM): 60%
residual activity (MAPKAPK3 (human); compound 0.1 µM): 80%
residual activity (MAPKAPK3 (human); compound 1.0 µM): 79%
residual activity (MAPKAPK3 (human); compound 10.0 µM): 86%
residual activity (MELK (human); compound 0.1 µM): 81%
residual activity (MELK (human); compound 1.0 µM): 54%
residual activity (MELK (human); compound 10.0 µM): 18%
residual activity (GCK (human); compound 0.1 µM): 37%
residual activity (GCK (human); compound 1.0 µM): 11%
residual activity (GCK (human); compound 10.0 µM): 3%
residual activity (BTK (human); compound 0.1 µM): 111%
residual activity (BTK (human); compound 1.0 µM): 94%
residual activity (BTK (human); compound 10.0 µM): 52%
residual activity (DYRK2 (human); compound 0.1 µM): 108%
residual activity (DYRK2 (human); compound 1.0 µM): 107%
residual activity (DYRK2 (human); compound 10.0 µM): 77%
residual activity (MAP2K6 (human); compound 0.1 µM): 87%
residual activity (MAP2K6 (human); compound 1.0 µM): 89%
residual activity (MAP2K6 (human); compound 10.0 µM): 104%
residual activity (BRSK1 (human); compound 0.1 µM): 88%
residual activity (BRSK1 (human); compound 1.0 µM): 85%
residual activity (BRSK1 (human); compound 10.0 µM): 57%
residual activity (ERBB4 (human); compound 0.1 µM): 88%
residual activity (ERBB4 (human); compound 1.0 µM): 76%
residual activity (ERBB4 (human); compound 10.0 µM): 56%
residual activity (PIM2 (human); compound 0.1 µM): 98%
residual activity (PIM2 (human); compound 1.0 µM): 104%
residual activity (PIM2 (human); compound 10.0 µM): 92%
residual activity (RIPK2 (human); compound 0.1 µM): 52%
residual activity (RIPK2 (human); compound 1.0 µM): 2%
residual activity (RIPK2 (human); compound 10.0 µM): 3%
residual activity (AURKB (human); compound 0.1 µM): 95%
residual activity (AURKB (human); compound 1.0 µM): 76%
residual activity (AURKB (human); compound 10.0 µM): 47%
residual activity (CHEK1 (human); compound 0.1 µM): 101%
residual activity (CHEK1 (human); compound 1.0 µM): 109%
residual activity (CHEK1 (human); compound 10.0 µM): 96%
residual activity (MAPK10 (human); compound 0.1 µM): 98%
residual activity (MAPK10 (human); compound 1.0 µM): 97%
residual activity (MAPK10 (human); compound 10.0 µM): 94%
residual activity (RPS6KA3 KD1 KD2 (human); compound 0.1 µM): 73%
residual activity (RPS6KA3 KD1 KD2 (human); compound 1.0 µM): 69%
residual activity (RPS6KA3 KD1 KD2 (human); compound 10.0 µM): 57%
residual activity (MST4 (human); compound 0.1 µM): 105%
residual activity (MST4 (human); compound 1.0 µM): 123%
residual activity (MST4 (human); compound 10.0 µM): 181%
residual activity (PRKACA (human); compound 0.1 µM): 99%
residual activity (PRKACA (human); compound 1.0 µM): 101%
residual activity (PRKACA (human); compound 10.0 µM): 94%
residual activity ([1]; compound 0.1 µM): 62%
residual activity ([1]; compound 1.0 µM): 79%
residual activity ([1]; compound 10.0 µM): 70%
residual activity (PIM3 (human); compound 0.1 µM): 105%
residual activity (PIM3 (human); compound 1.0 µM): 103%
residual activity (PIM3 (human); compound 10.0 µM): 84%
residual activity (CDK2 CCNA2 (human); compound 0.1 µM): 84%
residual activity (CDK2 CCNA2 (human); compound 1.0 µM): 84%
residual activity (CDK2 CCNA2 (human); compound 10.0 µM): 34%
residual activity (MAPK12 (human); compound 0.1 µM): 78%
residual activity (MAPK12 (human); compound 1.0 µM): 79%
residual activity (FGFR1 (human); compound 0.1 µM): 69%
residual activity (FGFR1 (human); compound 1.0 µM): 20%
residual activity (FGFR1 (human); compound 10.0 µM): 8%
residual activity (TAOK1 (human); compound 0.1 µM): 102%
residual activity (TAOK1 (human); compound 1.0 µM): 110%
residual activity (TAOK1 (human); compound 10.0 µM): 79%
residual activity (MINK1 (human); compound 0.1 µM): 74%
residual activity (MINK1 (human); compound 1.0 µM): 15%
residual activity (MINK1 (human); compound 10.0 µM): 4%
residual activity (INSRR (human); compound 0.1 µM): 82%
residual activity (INSRR (human); compound 1.0 µM): 68%
residual activity (INSRR (human); compound 10.0 µM): 37%
residual activity (MAP2K2 (human); compound 0.1 µM): 88%
residual activity (MAP2K2 (human); compound 1.0 µM): 91%
residual activity (MAP2K2 (human); compound 10.0 µM): 52%
residual activity (EPHA2 (human); compound 0.1 µM): 81%
residual activity (EPHA2 (human); compound 1.0 µM): 81%
residual activity (EPHA2 (human); compound 10.0 µM): 50%
residual activity (AURKA (human); compound 0.1 µM): 100%
residual activity (AURKA (human); compound 1.0 µM): 91%
residual activity (AURKA (human); compound 10.0 µM): 56%
residual activity (EEF2K (human); compound 0.1 µM): 95%
residual activity (EEF2K (human); compound 1.0 µM): 96%
residual activity (EEF2K (human); compound 10.0 µM): 79%
residual activity (PRKCA (human); compound 0.1 µM): 92%
residual activity (PRKCA (human); compound 1.0 µM): 96%
residual activity (PRKCA (human); compound 10.0 µM): 88%
residual activity ([2]; compound 0.1 µM): 100%
residual activity ([2]; compound 10.0 µM): 94%
SMILES: c1ccc2c(-c3cnn4cc(-c5ccc(N6CCNCC6)cc5)cnc34)ccnc2c1
residual activity (MAPK15 (human); compound 0.1 µM): 87%
residual activity (MAPK15 (human); compound 1.0 µM): 49%
residual activity (MAPK15 (human); compound 10.0 µM): 11%
